Test results taken from US20060257466A1, “Administration of macrophage targeted formulations of compounds which modulate cholesterol-metabolizing enzymes for treatment of atherosclerosis” (priority 2005, published 2006).

System: J774 macrophages
Experiment: Cholesterol efflux in vivo (macrophage cholesterol export)
Conditions: mice injected with [3H]-cholesterol-loaded J774 cells; 20 μg, tail vein; versus PBS vehicle; FIG. 1
Experimental: FIG. 1 is a line graph comparing in vivo macrophage cholesterol export in mice treated with a liposomal formulation of the ACAT inhibitor, Sandoz 58-035, at an estimated dose of 20 μg (open circles), mice treated with 20 μg of free non-liposome formulated Sandoz 58-035 (closed circles), and mice administered phosphate buffered saline (closed triangles).
For non-liposome formulated Sandoz 58-035 experiments, 10 ul of the stock solution (2 mg/ml) was diluted with 190 ul of phosphate buffered saline (PBS) to give a final Sandoz 58-035 solution of 20 μg/200 μl. Two hundred microliters of this solution containing 20 μg of Sandoz 58-035 was injected into each mouse through the tail vein.
Sandoz 58-035 was liposome formulated using a modified method of Jonas and co-workers (Jonas et al. J. Bio. Chem. 1989 264:4818-4825). […]
To determine cholesterol export in vivo, J774 cells were loaded with cholesterol and simultaneously incubated for 3 hours with 0.5 μCi/mL [^3H]-cholesterol, followed by an overnight equilibration period as described by Tam et al. (J. Lipid Res. 2002 43:1410-1420). […] Cholesterol efflux was determined by measuring the appearance of [^3H]-cholesterol in plasma by scintillation spectrometry. […]

CCCCCCCCCC[Si](C)(C)CCC(=O)NC(Cc1ccc(C)cc1)c1ccccc1 (stereo not shown) [Sandoz 58-035]
in vivo macrophage cholesterol export (result in words): did not increase macrophage cholesterol export over the vehicle
